Data: EP4603105A1, “PHARMACEUTICAL COMPOSITION CONTAINING CYCLIC COMPOUND HAVING SELECTIVE KRAS INHIBITORY EFFECT AGAINST HRAS AND NRAS” (CHUGAI SEIYAKU KABUSHIKI KAISHA, priority 2022, dated 2024)
*1 amine or outer side, *2 acyl side, *3 side chain or, on linkers, in order; H or OH if unused. Where a SMILES comes first, the peptide text is derived from it. Bridges are numbered along the chain shown (N, C = ends). [ ]: non-standard residue; d: D form. The star is where a group is joined. hPhe(3-Cl-4-CF3) = N[C@@H](CCc1ccc(C(F)(F)F)c(Cl)c1)C(=O)O; NPrPhe(4-CF3) = CCCN[C@@H](Cc1ccc(C(F)(F)F)cc1)C(=O)O; Abu(4,4,4-F3) = N[C@@H](CC(F)(F)F)C(=O)O; Morpholine(3S-CO) = O=C(O)[C@@H]1COCCN1; Pip(4,4-F2) = O=C(O)[C@@H]1CC(F)(F)CCN1; NMeGly(cPent) = CN[C@H](C(=O)O)C1CCCC1; Gly(cPent) = N[C@H](C(=O)O)C1CCCC1; Gly(cBu) = N[C@H](C(=O)O)C1CCC1; NMeD = CN[C@@H](CC(=O)O)C(=O)O; NMeL = CN[C@@H](CC(C)C)C(=O)O; X10 = N#CCN(CC(=O)[*:2])[*:1]; Pip = O=C(O)[C@@H]1CCCCN1; Morpholide = C1CN(*)CCO1; NMeA = CN[C@@H](C)C(=O)O; Ac5c = NC1(C(=O)O)CCCC1; Aze = O=C(O)[C@@H]1CCN1; NcPrGly = O=C(O)CNC1CC1; Abu = CC[C@H](N)C(=O)O; NPrGly = CCCNCC(=O)O; Sar = CNCC(=O)O

Legend:
HRAS wild-type protein = HRAS wild-type protein (Homo sapiens, UniProt P01112); experiment: Binding to HRAS by surface plasmon resonance (SPR), KD and KD ratio to KRAS; conditions: ratio of KD for HRAS wild-type protein to KD for KRAS
Method in brief: (§1)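 Recombinant RAS proteins bearing a biotinylated Avi tag and loaded with GDP served as the captured ligand, recaptured fresh every cycle. Binding responses were referenced to an uncoated surface and a buffer-only blank cycle. Dissociation constants were obtained by 1:1 model fitting at 30°C.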

[1] = tested on: human lung cancer strain NCI-H441; type: cell-based
Method in brief: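 Signal came from […] measured per well once the reagent was added. Beforehand, cells were cultured at 37°C and 5% carbon dioxide on a compound series serially diluted in dimethyl sulfoxide.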

[2] = target: GDP-bound NRAS wild-type protein (Homo sapiens, UniProt P01111); experiment: Binding to NRAS by surface plasmon resonance (SPR), KD and KD ratio to KRAS; conditions: ratio of KD for GDP-bound NRAS wild-type protein to KD for KRAS
Method in brief: as §1

GDP-bound NRAS wild-type protein, sequence (P01111 whole entry): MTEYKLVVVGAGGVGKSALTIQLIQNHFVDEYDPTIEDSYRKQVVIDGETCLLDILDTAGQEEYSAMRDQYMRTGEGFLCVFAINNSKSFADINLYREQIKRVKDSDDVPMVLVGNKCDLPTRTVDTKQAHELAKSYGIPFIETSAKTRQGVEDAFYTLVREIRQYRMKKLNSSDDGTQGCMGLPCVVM
HRAS wild-type protein, sequence (P01112 whole entry): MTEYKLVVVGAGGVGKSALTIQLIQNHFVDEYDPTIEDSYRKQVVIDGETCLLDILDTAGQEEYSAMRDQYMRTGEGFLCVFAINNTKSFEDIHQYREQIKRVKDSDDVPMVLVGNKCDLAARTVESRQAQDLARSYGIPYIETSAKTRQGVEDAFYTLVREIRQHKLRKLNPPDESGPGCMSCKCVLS

SMILES	HRAS /KRAS (HRAS wild-type protein)	IC50 [1]	NRAS /KRAS [2]
CCCN1C(=O)CN(C)C(=O)CN(C)C(=O)[C@H]([C@@H](C)CC)NC(=O)[C@H](CC(C)C)N(C)C(=O)C[C@@H](C(=O)N2CCOCC2)N(C)C(=O)[C@H](C2CCCC2)N(C)C(=O)C2(CCCC2)NC(=O)[C@@H]2CCCCN2C(=O)[C@H](CCc2ccc(C(F)(F)F)c(Cl)c2)NC(=O)CN(C)C(=O)[C@@H]1Cc1ccc(C(F)(F)F)cc1 [PP0263] ([NMeL]I[Sar][Sar][NPrPhe(4-CF3)][Sar][hPhe(3-Cl-4-CF3)][Pip][Ac5c][NMeGly(cPent)][NMeD]-Morpholide; lactam N-11)	C (A compound having a KD ratio of 0.1 or more and less than 3 is denoted as C)	19.2 nM	B (a compound having 3 or more and less than 10 is denoted as B)
CCCN1C(=O)CN(C)C(=O)CN(C)C(=O)[C@H]([C@@H](C)CC)NC(=O)[C@H](CC(C)C)N(C)C(=O)C[C@@H](C(=O)N2CCOCC2)N(C)C(=O)[C@H](C2CCCC2)N(C)C(=O)C2(CCCC2)NC(=O)[C@@H]2CC(F)(F)CCN2C(=O)[C@H](CCc2ccc(C(F)(F)F)c(Cl)c2)NC(=O)CN(C)C(=O)[C@@H]1Cc1ccc(C(F)(F)F)cc1 [PP0264] ([NMeL]I[Sar][Sar][NPrPhe(4-CF3)][Sar][hPhe(3-Cl-4-CF3)][Pip(4,4-F2)][Ac5c][NMeGly(cPent)][NMeD]-Morpholide; lactam N-11)	C (A compound having a KD ratio of 0.1 or more and less than 3 is denoted as C)	16.4 nM	B (a compound having 3 or more and less than 10 is denoted as B)
CCCN1C(=O)CN(C)C(=O)CN(C)C(=O)[C@H]([C@@H](C)CC)NC(=O)[C@H](CC(C)C)N(C)C(=O)C[C@@H](C(=O)N2CCOCC2)N(C)C(=O)[C@H](C2CCCC2)N(C)C(=O)C2(CCCC2)NC(=O)[C@@H]2COCCN2C(=O)[C@H](CCc2ccc(C(F)(F)F)c(Cl)c2)NC(=O)CN(C)C(=O)[C@@H]1Cc1ccc(C(F)(F)F)cc1 [PP0265] ([NMeL]I[Sar][Sar][NPrPhe(4-CF3)][Sar][hPhe(3-Cl-4-CF3)][Morpholine(3S-CO)][Ac5c][NMeGly(cPent)][NMeD]-Morpholide; lactam N-11)	C (A compound having a KD ratio of 0.1 or more and less than 3 is denoted as C)	13.3 nM	B (a compound having 3 or more and less than 10 is denoted as B)
CCCN1CC(=O)NC2(CCCC2)C(=O)N(C)[C@@H](C2CCCC2)C(=O)N(C)[C@H](C(=O)N2CCOCC2)CC(=O)N(C)[C@@H](CC(C)C)C(=O)N[C@@H]([C@@H](C)CC)C(=O)N(C)CC(=O)N(C)CC(=O)N(CCC)[C@@H](Cc2ccc(C(F)(F)F)cc2)C(=O)N(C)CC(=O)N[C@@H](CCc2ccc(C(F)(F)F)c(Cl)c2)C1=O [PP0267] ([NMeL]I[Sar][Sar][NPrPhe(4-CF3)][Sar][hPhe(3-Cl-4-CF3)][NPrGly][Ac5c][NMeGly(cPent)][NMeD]-Morpholide; lactam N-11)	B (a compound having 3 or more and less than 10 is denoted as B)	38.2 nM	B (a compound having 3 or more and less than 10 is denoted as B)
CCCN1C(=O)[C@@H]2CCN2C(=O)[C@H](C)N(C)C(=O)[C@H](CC)NC(=O)[C@H](CC(C)C)N(C)C(=O)C[C@@H](C(=O)N2CCOCC2)N(C)C(=O)[C@H](C2CCCC2)N(C)C(=O)C2(CCCC2)NC(=O)[C@@H]2CCCN2C(=O)[C@H](CCc2ccc(C(F)(F)F)c(Cl)c2)NC(=O)CN(C)C(=O)[C@@H]1Cc1ccc(C(F)(F)F)cc1 [PP0269] ([NMeL][Abu][NMeA][Aze][NPrPhe(4-CF3)][Sar][hPhe(3-Cl-4-CF3)]P[Ac5c][NMeGly(cPent)][NMeD]-Morpholide; lactam N-11)	B (a compound having 3 or more and less than 10 is denoted as B)	34.7 nM	C (A compound having a KD ratio of 0.1 or more and less than 3 is denoted as C)
CCCN1C(=O)[C@@H]2CCN2C(=O)[C@H](C)N(C)C(=O)[C@H](CC(F)(F)F)NC(=O)[C@H](CC(C)C)N(C)C(=O)C[C@@H](C(=O)N2CCOCC2)N(C)C(=O)[C@H](C2CCCC2)N(C)C(=O)C2(CCCC2)NC(=O)[C@@H]2CCCN2C(=O)[C@H](CCc2ccc(C(F)(F)F)c(Cl)c2)NC(=O)CN(C)C(=O)[C@@H]1Cc1ccc(C(F)(F)F)cc1 [PP0270] ([NMeL][Abu(4,4,4-F3)][NMeA][Aze][NPrPhe(4-CF3)][Sar][hPhe(3-Cl-4-CF3)]P[Ac5c][NMeGly(cPent)][NMeD]-Morpholide; lactam N-11)	B (a compound having 3 or more and less than 10 is denoted as B)	8.5 nM	C (A compound having a KD ratio of 0.1 or more and less than 3 is denoted as C)
CCCN1C(=O)[C@@H]2CCN2C(=O)[C@H](C)N(C)C(=O)[C@H](C2CCC2)NC(=O)[C@H](CC(C)C)N(C)C(=O)C[C@@H](C(=O)N2CCOCC2)N(C)C(=O)[C@H](C2CCCC2)N(C)C(=O)C2(CCCC2)NC(=O)[C@@H]2CCCN2C(=O)[C@H](CCc2ccc(C(F)(F)F)c(Cl)c2)NC(=O)CN(C)C(=O)[C@@H]1Cc1ccc(C(F)(F)F)cc1 [PP0271] ([NMeL][Gly(cBu)][NMeA][Aze][NPrPhe(4-CF3)][Sar][hPhe(3-Cl-4-CF3)]P[Ac5c][NMeGly(cPent)][NMeD]-Morpholide; lactam N-11)	B (a compound having 3 or more and less than 10 is denoted as B)	6.5 nM	C (A compound having a KD ratio of 0.1 or more and less than 3 is denoted as C)
CCCN1C(=O)[C@@H]2CCN2C(=O)[C@H](C)N(C)C(=O)[C@H](C2CCCC2)NC(=O)[C@H](CC(C)C)N(C)C(=O)C[C@@H](C(=O)N2CCOCC2)N(C)C(=O)[C@H](C2CCCC2)N(C)C(=O)C2(CCCC2)NC(=O)[C@@H]2CCCN2C(=O)[C@H](CCc2ccc(C(F)(F)F)c(Cl)c2)NC(=O)CN(C)C(=O)[C@@H]1Cc1ccc(C(F)(F)F)cc1 [PP0272] ([NMeL][Gly(cPent)][NMeA][Aze][NPrPhe(4-CF3)][Sar][hPhe(3-Cl-4-CF3)]P[Ac5c][NMeGly(cPent)][NMeD]-Morpholide; lactam N-11)	B (a compound having 3 or more and less than 10 is denoted as B)	3.7 nM	C (A compound having a KD ratio of 0.1 or more and less than 3 is denoted as C)
CCCN1C(=O)[C@@H]2CCN2C(=O)CN(C2CC2)C(=O)[C@H]([C@@H](C)CC)NC(=O)[C@H](CC(C)C)N(C)C(=O)C[C@@H](C(=O)N2CCOCC2)N(C)C(=O)[C@H](C2CCCC2)N(C)C(=O)C2(CCCC2)NC(=O)[C@@H]2CCCN2C(=O)[C@H](CCc2ccc(C(F)(F)F)c(Cl)c2)NC(=O)CN(C)C(=O)[C@@H]1Cc1ccc(C(F)(F)F)cc1 [PP0273] ([NMeL]I[NcPrGly][Aze][NPrPhe(4-CF3)][Sar][hPhe(3-Cl-4-CF3)]P[Ac5c][NMeGly(cPent)][NMeD]-Morpholide; lactam N-11)	B (a compound having 3 or more and less than 10 is denoted as B)	12.2 nM	C (A compound having a KD ratio of 0.1 or more and less than 3 is denoted as C)
CCCN1CC(=O)N2CC[C@H]2C(=O)N(CCC)[C@@H](Cc2ccc(C(F)(F)F)cc2)C(=O)N(C)CC(=O)N[C@@H](CCc2ccc(C(F)(F)F)c(Cl)c2)C(=O)N2CCC[C@H]2C(=O)NC2(CCCC2)C(=O)N(C)[C@@H](C2CCCC2)C(=O)N(C)[C@H](C(=O)N2CCOCC2)CC(=O)N(C)[C@@H](CC(C)C)C(=O)N[C@@H]([C@@H](C)CC)C1=O [PP0274] ([NMeL]I[NPrGly][Aze][NPrPhe(4-CF3)][Sar][hPhe(3-Cl-4-CF3)]P[Ac5c][NMeGly(cPent)][NMeD]-Morpholide; lactam N-11)	B (a compound having 3 or more and less than 10 is denoted as B)	9.1 nM	C (A compound having a KD ratio of 0.1 or more and less than 3 is denoted as C)
CCCN1C(=O)[C@@H]2CCN2C(=O)CN(CC#N)C(=O)[C@H]([C@@H](C)CC)NC(=O)[C@H](CC(C)C)N(C)C(=O)C[C@@H](C(=O)N2CCOCC2)N(C)C(=O)[C@H](C2CCCC2)N(C)C(=O)C2(CCCC2)NC(=O)[C@@H]2CCCN2C(=O)[C@H](CCc2ccc(C(F)(F)F)c(Cl)c2)NC(=O)CN(C)C(=O)[C@@H]1Cc1ccc(C(F)(F)F)cc1 [PP0275] ([NMeL]I[X10][Aze][NPrPhe(4-CF3)][Sar][hPhe(3-Cl-4-CF3)]P[Ac5c][NMeGly(cPent)][NMeD]-Morpholide; lactam N-11)	C (A compound having a KD ratio of 0.1 or more and less than 3 is denoted as C)	9.3 nM	C (A compound having a KD ratio of 0.1 or more and less than 3 is denoted as C)
CCCN1C(=O)[C@@H]2CCN2C(=O)[C@H](C)N(C)C(=O)[C@H]([C@@H](C)CC)NC(=O)[C@H](CC(C)C)N(C)C(=O)C[C@@H](C(=O)N2CCOCC2)N(C)C(=O)[C@H](C2CCCC2)N(C)C(=O)C2(CCCC2)NC(=O)[C@@H]2CCN2C(=O)[C@H](CCc2ccc(C(F)(F)F)c(Cl)c2)NC(=O)CN(C)C(=O)[C@@H]1Cc1ccc(C(F)(F)F)cc1 [PP0281] ([NMeL]I[NMeA][Aze][NPrPhe(4-CF3)][Sar][hPhe(3-Cl-4-CF3)][Aze][Ac5c][NMeGly(cPent)][NMeD]-Morpholide; lactam N-11)	C (A compound having a KD ratio of 0.1 or more and less than 3 is denoted as C)	7.8 nM	C (A compound having a KD ratio of 0.1 or more and less than 3 is denoted as C)
